This passage reports IC50 results from patent US20250051363A1, “Substituted Pyrazolopyridines” (Neuro3 Therapeutics, Inc., priority 2023, published 2025).

Structures can show the parent of a compound that is named as a salt.

The target in the assay is LRRK2 wild-type (Homo sapiens (Human), UniProt Q5S007). The experiment in a line: LanthaScreen LRRK2 Biochemical Activity Assay. The note with it: human recombinant LRRK2 (amino acids 970-2527) wild-type, ATP 57 μM, TR-FRET; read-out: IC50 (nM), inhibition of LRRK2 wild-type kinase activity. As for the experimental part: The ability of a compound of Formula (I) to inhibit LRRK2 kinase activity is measured using a LanthaScreen™ kinase activity assay. In general, in a LanthaScreen™ kinase activity assay, kinase, fluorescein-labeled substrate, and ATP are allowed to react. Then EDTA (to stop the reaction) and terbium-labeled antibody (to detect phosphorylated product) are added. In a LanthaScreen™ kinase reaction, the antibody associates with the phosphorylated fluorescein labeled substrate resulting in an increased TR-FRET value. The TR-FRET value is a dimensionless number that is calculated as the ratio of the acceptor (fluorescein) signal to the donor (terbium) signal. The amount of antibody that is bound to the tracer is directly proportional to the amount of phosphorylated substrate present, and in this manner, kinase activity can be detected and measured by an increase in the TR-FRET value. Accordingly, in this Example, enzyme reactions are carried out in a kinase reaction buffer in the presence or absence of representative compounds of Formula (I) at various concentrations in 384-well plate at room temperature for 60 minutes. The kinase reaction buffer contains human recombinant LRRK2 protein (amino acids 970-2527, 5 nM), ATP (57 μM for LRRK2 wild-type, 134 μM for G2019S mutant protein), Fluorescein-LRRKtide substrate (0.4 mM), 50 mM Tris pH 7.5, 10 mM MgCl2, 1 mM EGTA, 0.01% Brij™-35, and 2 mM DTT. The final reaction volume for each reaction is 10 μL. The reactions are initated by adding the substrate and stopped by the addition of 10 μL of a TR-FRET dilution buffer supplemented with a kinase quench buffer (10 mM EDTA final) and Tb-anti-pLRRKtide (2 nM final). The plate is further incubated at room temperature for another 60 minutes, and the fluorescent signals are read on an EnVision® multilabel plate reader (PerkinElmer, Waltham, MA) with excitation at 340 nm and emission at 495 and 520 nm. The assay signal is determined as a ratio of FRET-specific signal measured with emission filter at 520 nm to that of the signal measured with Tb-specific emission filter at 495 nm. IC50 values for compound-mediated enzyme inhibition are calculated using appropriate programs in GraphPad Prism software by plotting the logarithm of the compound concentrations versus percent inhibition. All reagents are purchased from Thermo Fisher Scientific.
LRRK2 wild-type, sequence (Q5S007 970-2527): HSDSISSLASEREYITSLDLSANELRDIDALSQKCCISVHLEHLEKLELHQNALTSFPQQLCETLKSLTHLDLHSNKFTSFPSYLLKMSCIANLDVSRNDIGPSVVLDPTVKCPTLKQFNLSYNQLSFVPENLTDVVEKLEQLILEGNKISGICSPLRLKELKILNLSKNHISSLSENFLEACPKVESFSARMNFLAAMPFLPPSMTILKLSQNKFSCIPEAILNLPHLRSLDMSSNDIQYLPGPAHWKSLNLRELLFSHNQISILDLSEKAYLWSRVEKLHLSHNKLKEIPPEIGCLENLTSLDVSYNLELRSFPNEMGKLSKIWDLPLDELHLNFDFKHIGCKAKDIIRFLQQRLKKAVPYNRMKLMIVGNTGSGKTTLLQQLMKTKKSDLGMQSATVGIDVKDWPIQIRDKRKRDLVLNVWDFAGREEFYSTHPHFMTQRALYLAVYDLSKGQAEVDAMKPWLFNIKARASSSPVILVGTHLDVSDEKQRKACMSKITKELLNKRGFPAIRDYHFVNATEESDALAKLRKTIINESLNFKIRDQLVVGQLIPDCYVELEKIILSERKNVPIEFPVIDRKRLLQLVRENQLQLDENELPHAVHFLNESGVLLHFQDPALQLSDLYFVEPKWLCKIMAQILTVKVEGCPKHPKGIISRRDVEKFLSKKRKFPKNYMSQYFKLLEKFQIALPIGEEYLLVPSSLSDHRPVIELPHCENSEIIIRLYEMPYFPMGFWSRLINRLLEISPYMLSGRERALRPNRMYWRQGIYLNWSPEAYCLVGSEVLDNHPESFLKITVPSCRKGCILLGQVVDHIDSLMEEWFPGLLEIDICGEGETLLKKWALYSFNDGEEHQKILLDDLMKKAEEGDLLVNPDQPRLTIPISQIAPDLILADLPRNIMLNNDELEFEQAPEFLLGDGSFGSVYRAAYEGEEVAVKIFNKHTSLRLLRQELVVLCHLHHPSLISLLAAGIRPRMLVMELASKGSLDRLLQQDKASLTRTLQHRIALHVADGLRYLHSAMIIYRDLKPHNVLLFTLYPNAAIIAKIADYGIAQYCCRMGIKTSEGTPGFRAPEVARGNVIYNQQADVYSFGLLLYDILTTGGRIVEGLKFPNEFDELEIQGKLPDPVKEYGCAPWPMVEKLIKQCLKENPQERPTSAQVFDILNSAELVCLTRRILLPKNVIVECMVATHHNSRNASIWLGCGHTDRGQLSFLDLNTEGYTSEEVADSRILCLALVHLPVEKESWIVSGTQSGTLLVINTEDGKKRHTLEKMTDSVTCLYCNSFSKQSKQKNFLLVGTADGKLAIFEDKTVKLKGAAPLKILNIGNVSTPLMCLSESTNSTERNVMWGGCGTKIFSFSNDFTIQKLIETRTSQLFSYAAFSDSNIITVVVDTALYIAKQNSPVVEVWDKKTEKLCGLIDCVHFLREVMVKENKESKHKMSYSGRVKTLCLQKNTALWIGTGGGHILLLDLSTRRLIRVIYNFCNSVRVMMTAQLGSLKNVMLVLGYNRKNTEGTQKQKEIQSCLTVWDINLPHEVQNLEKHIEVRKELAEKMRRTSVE
On the technique in general: In TR-FRET formats the signal depends on donor and acceptor labels being close together.
As usually defined, the IC50 is the midpoint of a concentration-inhibition curve. Consider `CNc1ccn2ncc(-c3cc(Cl)cc(N4CCNCC4)n3)c2c1` [Example 39, 3-(4-chloro-6-piperazin-1-yl-2-pyridyl)-N-methyl-pyrazolo[1,5-a]pyridin-5-amine], for which the IC50 lay within 11 to 100 nM. Under `FC(F)(F)c1ccn2ncc(-c3cccc(N4CCNCC4)n3)c2c1` [Example 40, 3-(6-piperazin-1-yl-2-pyridyl)-5-(trifluoromethyl)pyrazolo[1,5-a]pyridine] stands 11 to 100 nM; under `FC(F)(F)c1ccn2ncc(-c3cc(Cl)cc(N4CCNCC4)n3)c2c1` [Example 41, 3-(4-chloro-6-piperazin-1-yl-2-pyridyl)-5-(trifluoromethyl) pyrazolo[1,5-a]pyridine], 11 to 100 nM; under `Clc1ccn2ncc(-c3cccc(N4CCNCC4)n3)c2c1` [Example 42, 5-chloro-3-(6-piperazin-1-yl-2-pyridyl)pyrazolo[1,5-a]pyridine], 11 to 100 nM. The value for `Clc1cc(-c2cnn3ccc(Cl)cc23)nc(N2CCNCC2)c1` [Example 43, 5-chloro-3-(4-chloro-6-piperazin-1-yl-2-pyridyl)pyrazolo[1,5-a]pyridine] was 11 to 100 nM. The value for `Fc1cc(-c2cnn3ccc(Cl)cc23)nc(N2CCNCC2)c1` [Example 44, 5-chloro-3-(4-fluoro-6-piperazin-1-yl-2-pyridyl)pyrazolo[1,5-a]pyridine] was 11 to 100 nM; that for `c1cc(-c2cnn3ccccc23)nc(N2CC3CC(C2)N3)c1` [Example 45, 3-[6-(3,6-Diazabicyclo[3.1.1]heptan-3-yl)-2-pyridyl]pyrazolo[1,5-a]pyridine] was 101 to 400 nM. For `Clc1ccn2ncc(-c3cccc(N4CC5CC(C4)N5)n3)c2c1` [Example 46, 3-(6-(5-chloropyrazolo[1,5-a]pyridin-3-yl)pyridin-2-yl)-3,6-diazabicyclo[3.1.1]heptane], the concentration for half-maximal inhibition (IC50) lay within 11 to 100 nM.

In the case of `Clc1cc(-c2cnn3ccc(Cl)cc23)nc(N2CC3CC(C2)N3)c1` [Example 47, 5-chloro-3-[4-chloro-6-(3,6-diazabicyclo[3.1.1]heptan-3-yl)-2-pyridyl]pyrazolo[1,5-a]pyridine], the IC50 was 101 to 400 nM. The value for `c1cc(-c2cnn3ccccc23)nc(N2CC3CCC2CN3)c1` (stereo not drawn) [Example 48, 3-[6-(2,5-diazabicyclo[2.2.2]octan-2-yl)-2-pyridyl]pyrazolo[1,5-a]pyridine] was 101 to 400 nM; that for `C[C@@H]1CN(c2cccc(-c3cnn4ccccc34)n2)C[C@H](C)N1` [Example 49, 3-[6-[(3S,5R)-3,5-dimethylpiperazin-1-yl]-2-pyridyl]pyrazolo[1,5-a]pyridine] was 11 to 100 nM; that for `C[C@@H]1CN(c2cccc(-c3cnn4ccccc34)n2)C[C@@H](C)N1` [Example 50, 3-[6-[(3R,5R)-3,5-dimethylpiperazin-1-yl]-2-pyridyl]pyrazolo[1,5-a]pyridine] was 11 to 100 nM. Under `C[C@@H]1CN(c2cc(Cl)cc(-c3cnn4ccccc34)n2)C[C@H](C)N1` [Example 51, 3-[4-chloro-6-[(3S,5R)-3,5-dimethylpiperazin-1-yl]-2-pyridyl]pyrazolo[1,5-a]pyridine] stands 11 to 100 nM; under `C[C@@H]1CN(c2cc(F)cc(-c3cnn4ccccc34)n2)C[C@H](C)N1` [Example 52, 3-[6-[(3R,5S)-3,5-dimethylpiperazin-1-yl]-4-fluoro-2-pyridyl]pyrazolo[1,5-a]pyridine], 11 to 100 nM; under `CNc1ccn2ncc(-c3cccc(N4C[C@@H](C)N[C@@H](C)C4)n3)c2c1` [Example 53, 3-[6-[(3S,5R)-3,5-dimethylpiperazin-1-yl]-2-pyridyl]-N-methyl-pyrazolo[1,5-a]pyridin-5-amine], 11 to 100 nM.

In the case of `CNc1ccn2ncc(-c3cc(Cl)cc(N4C[C@@H](C)N[C@@H](C)C4)n3)c2c1` [Example 54, 3-[4-chloro-6-[(3S,5R)-3,5-dimethylpiperazin-1-yl]-2-pyridyl]-N-methyl-pyrazolo[1,5-a]pyridin-5-amine], the half-maximal inhibitory concentration (IC50) was in the range of 11 to 100 nM. The value for `C[C@@H]1CN(c2cccc(-c3cnn4ccc(C(F)(F)F)cc34)n2)C[C@H](C)N1` [Example 55, 3-[6-[(3S,5R)-3,5-dimethylpiperazin-1-yl]-2-pyridyl]-5-(trifluoromethyl)pyrazolo[1,5-a]pyridine] was at most 10 nM; that for `C[C@@H]1CN(c2cc(Cl)cc(-c3cnn4ccc(C(F)(F)F)cc34)n2)C[C@H](C)N1` [Example 56, 3-[4-chloro-6-[(3S,5R)-3,5-dimethylpiperazin-1-yl]-2-pyridyl]-5-(trifluoromethyl)pyrazolo[1,5-a]pyridine] was at most 10 nM. Under `C[C@@H]1CN(c2cccc(-c3cnn4ccc(Cl)cc34)n2)C[C@H](C)N1` [Example 57, 5-chloro-3-[6-[(3R,5S)-3,5-dimethylpiperazin-1-yl]-2-pyridyl]pyrazolo[1,5-a]pyridine] stands at most 10 nM; under `C[C@@H]1CN(c2cc(F)cc(-c3cnn4ccc(Cl)cc34)n2)C[C@H](C)N1` [Example 58, 5-chloro-3-[6-[(3R,5S)-3,5-dimethylpiperazin-1-yl]-4-fluoro-2-pyridyl]pyrazolo[1,5-a]pyridine], at most 10 nM. Consider `C[C@@H]1CN(c2cc(Cl)cc(-c3cnn4ccc(Cl)cc34)n2)C[C@H](C)N1` [Example 59, 5-chloro-3-[4-chloro-6-[(3S,5R)-3,5-dimethylpiperazin-1-yl]-2-pyridyl]pyrazolo[1,5-a]pyridine], for which the half-maximal inhibitory concentration (IC50) was at most 10 nM.

Take `C[C@@H]1CN(c2nc(-c3cnn4ccc(Cl)cc34)ccc2Cl)C[C@H](C)N1` [Example 60, 5-chloro-3-[5-chloro-6-[(3S,5R)-3,5-dimethylpiperazin-1-yl]-2-pyridyl]pyrazolo[1,5-a]pyridine]: the IC50 is 101 to 400 nM. The value for `C[C@@H]1CN(c2nc(-c3cnn4ccc(Cl)cc34)ccc2F)C[C@H](C)N1` [Example 61, 5-chloro-3-[6-[(3S,5R)-3,5-dimethylpiperazin-1-yl]-5-fluoro-2-pyridyl]pyrazolo[1,5-a]pyridine] was at most 10 nM; that for `CNc1ccn2ncc(-c3cc(Cl)cc(C4CCCNC4)n3)c2c1` (stereo not drawn) [Example 62, 3-[4-chloro-6-(3-piperidyl)-2-pyridyl]-N-methyl-pyrazolo[1,5-a]pyridin-5-amine] was 11 to 100 nM. The value for `C[C@@H]1CN(c2ccc(Cl)c(-c3cnn4ccc(Cl)cc34)n2)C[C@H](C)N1` [Example 63, 5-chloro-3-[3-chloro-6-[(3S,5R)-3,5-dimethylpiperazin-1-yl]-2-pyridyl]pyrazolo[1,5-a]pyridine] was at most 10 nM. Under `C[C@@H]1CN(c2ccc(F)c(-c3cnn4ccc(Cl)cc34)n2)C[C@H](C)N1` [Example 64, 5-chloro-3-[6-[(3S,5R)-3,5-dimethylpiperazin-1-yl]-3-fluoro-2-pyridyl]pyrazolo[1,5-a]pyridine] stands 11 to 100 nM; under `CC(C)Oc1ccn2ncc(-c3cc(Cl)cc(C4CCCNC4)n3)c2c1` (stereo not drawn) [Example 65, 3-[4-chloro-6-(3-piperidyl)-2-pyridyl]-5-isopropoxy-pyrazolo[1,5-a]pyridine], at most 10 nM; under `CC1(C)CN(c2cccc(-c3cnn4ccc(Cl)cc34)n2)CC(C)(C)N1` [Example 66, 5-chloro-3-[6-(3,3,5,5-tetramethylpiperazin-1-yl)-2-pyridyl]pyrazolo[1,5-a]pyridine], at most 10 nM.

As to `CS(=O)(=O)CC(=O)Nc1ccn2ncc(-c3cccc(C4CCCNC4)n3)c2c1` (stereo not drawn) [Example 67, 2-(methylsulfonyl)-N-(3-(6-(piperidin-3-yl)pyridin-2-yl)pyrazolo[1,5-a]pyridin-5-yl)acetamide], the half-maximal inhibitory concentration (IC50) is 11 to 100 nM. With `CS(=O)(=O)NCC(=O)Nc1ccn2ncc(-c3cccc(C4CCCNC4)n3)c2c1` (stereo not drawn) [Example 68, 2-(methylsulfonamido)-N-(3-(6-(piperidin-3-yl)pyridin-2-yl)pyrazolo[1,5-a]pyridin-5-yl)acetamide], the half-maximal inhibitory concentration (IC50) fell in the range of 11 to 100 nM. The value for `C[C@@H]1CN(c2cccc(-c3cnn4ccccc34)n2)CCN1` [Example 69, (R)-3-(6-(3-methylpiperazin-1-yl)pyridin-2-yl)pyrazolo[1,5-a]pyridine formate] was 11 to 100 nM; that for `C[C@H]1CN(c2cccc(-c3cnn4ccccc34)n2)CCN1` [Example 70, (S)-3-(6-(3-methylpiperazin-1-yl)pyridin-2-yl)pyrazolo[1,5-a]pyridine formate] was 11 to 100 nM; that for `C[C@@H]1CN(c2cccc(-c3cnn4ccc(Cl)cc34)n2)C[C@H](C)N1C` [Example 71, 5-chloro-3-(6-((3S,5R)-3,4,5-trimethylpiperazin-1-yl)pyridin-2-yl)pyrazolo[1,5-a]pyridine] was 11 to 100 nM.
